Six molecules from paper PMC10989504 (RSC Chemical Biology, 2024) can be followed below.

One series addresses T1, papain (Carica papaya, UniProt P00784).
T1 sequence (P00784 134-345): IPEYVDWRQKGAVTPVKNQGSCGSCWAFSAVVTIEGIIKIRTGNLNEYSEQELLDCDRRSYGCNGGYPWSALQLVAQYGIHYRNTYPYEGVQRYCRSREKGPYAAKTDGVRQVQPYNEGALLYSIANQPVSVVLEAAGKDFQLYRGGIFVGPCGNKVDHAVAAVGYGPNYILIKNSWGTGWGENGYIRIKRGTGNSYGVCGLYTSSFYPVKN
Briefly: Papain inhibition. It counts as biochemical. The following applies: TD19 at 10 μM; E64 and IAA positive controls.

Series [1] has as its target T2, ALKBH5 (Homo sapiens, UniProt Q6P6C2). Briefly: PAGE-based demethylation assay, ALKBH5. It counts as biochemical. To be noted: compound at 50 μM.
The target in series [2] is T2, ALKBH5. In words: FRET-based m6A detection assay, ALKBH5. To be noted: preincubation for various durations, in words.
Another series deals with FTO (Homo sapiens, UniProt Q9C0B1). Briefly: PAGE-based demethylation assay, FTO. It counts as biochemical. The following applies: compound at 50 μM.
FTO, sequence (Q9C0B1 32-505 limits assumed): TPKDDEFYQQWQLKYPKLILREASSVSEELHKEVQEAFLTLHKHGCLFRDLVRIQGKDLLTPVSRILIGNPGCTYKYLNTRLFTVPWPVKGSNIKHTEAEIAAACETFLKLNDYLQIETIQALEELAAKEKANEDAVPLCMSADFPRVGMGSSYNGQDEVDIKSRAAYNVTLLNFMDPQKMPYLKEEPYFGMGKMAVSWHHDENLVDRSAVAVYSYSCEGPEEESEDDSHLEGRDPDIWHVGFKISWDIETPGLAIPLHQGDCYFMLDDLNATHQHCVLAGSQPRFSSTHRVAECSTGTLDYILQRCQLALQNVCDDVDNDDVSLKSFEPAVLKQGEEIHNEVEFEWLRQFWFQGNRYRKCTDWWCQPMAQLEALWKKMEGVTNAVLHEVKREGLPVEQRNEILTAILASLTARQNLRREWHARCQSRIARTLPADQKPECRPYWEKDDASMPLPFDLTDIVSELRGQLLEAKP
The next series has as its system AML and GBM cells. Briefly: Viability of AML and GBM cells, control compound. To be noted: 72 h, MTT/CCK8, in words.
In the next series the target is ALKBH5 C100SC267S (human, UniProt Q6P6C2 66-292, C100S;C267S). Briefly: pull-down.
ALKBH5 C100SC267S, sequence (Q6P6C2 66-292 C100S/C267S): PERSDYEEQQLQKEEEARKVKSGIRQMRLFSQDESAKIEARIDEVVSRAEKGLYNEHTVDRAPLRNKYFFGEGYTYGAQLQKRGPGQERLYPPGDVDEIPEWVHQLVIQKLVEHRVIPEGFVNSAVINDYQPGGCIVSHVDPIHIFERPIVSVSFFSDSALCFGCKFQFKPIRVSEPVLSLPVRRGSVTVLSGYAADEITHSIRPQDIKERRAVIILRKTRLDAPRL

T2 sequence (Q6P6C2 66-292 limits assumed): as the sequence (Q6P6C2 66-292 C100S/C267S) above, with S35C, S202C counted along it

Turning to `CC(C)C[C@H](NC(=O)[C@H]1O[C@@H]1C(=O)O)C(=O)NCCCCN=C(N)N` (relative stereo) [E64, L-trans-epoxysuccinyl-leucylamido(4-guanidino)butane], the Inhibition of papain entry at papain was “significant inhibition”. As for `CCN1C(=O)C=CC1=O` [NEM, N-ethylmaleimide], the “Inhibition of ALKBH5 demethylation of dm6A-modified substrate” value on ALKBH5 [1] was “inhibited the demethylation”. For the molecule `O=C(O)c1cc(O)c2c(c1)C(=O)c1cccc(O)c1C2=O` [rhein], the “Time dependence and reversibility of ALKBH5 inhibition” value at ALKBH5 [2] was “time-independent and reversible”. `NC(=O)CI` [IAA, iodoacetamide]: the “Inhibition of ALKBH5 demethylation of dm6A-modified substrate” value at ALKBH5 [1] was “did not inhibit”. In addition, at papain, the Inhibition of papain result is “significant inhibition”. The “Inhibition of FTO demethylation of dm6A-modified substrate” value at FTO is on record as “did not inhibit”. With `Cc1noc(C)c1-c1cc(Cl)c(Nc2ccccc2C(=O)NO)c(Cl)c1` [FB23-2], in the series with AML and GBM cells, the “Antiproliferative activity compared with TD19” value was “displayed better activities than TD19”.

B1: 5'-biotin-TEG dm6A DNA (ssDNA)
DNA: TTTTTTGGACT
modifications: N6-methyl-deoxyadenosine at position 9
Regarding B1, in the series with ALKBH5 C100SC267S, the binding result is reported as “binds”.
